Measured values published in patent publication US4327097A, “Novel penicillins” (Toyama Chemical Co., Ltd., priority 1974, dated 1982).
Converted amounts (≈) assume the structure as drawn.

How the values were obtained:
Escherichia coli NIHJ = assay: MIC, plate method, standard strains; type: cell-based; settings: Table 3, standard strain; unit assumed
In short: (§1)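 Agar plate dilution on Heart infusion agar (pH 7.4); inoculum 10^4 cells per plate from a 10^6 cells/ml suspension. MIC taken as the lowest concentration inhibiting growth.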

Klebsiella pneumoniae [1] = assay: MIC, plate method, standard strains; type: cell-based; settings: Table 3, standard strain; unit assumed
In short: as §1

Proteus vulgaris 3027 = assay: MIC, plate method, standard strains; type: cell-based; settings: Table 3, standard strain; unit assumed
In short: as §1

[2] = tested on: Staphylococcus aureus 209p; assay: MIC, plate method, standard strains; type: cell-based; settings: Table 3, standard strain, Heart infusion agar pH 7.4; unit assumed
In short: as §1

Staphylococcus aureus = assay: MIC against clinical isolates; type: cell-based; settings: Table 5-1, clinical isolate; unit assumed
Escherichia coli = assay: MIC against clinical isolates; type: cell-based; settings: Table 5-2, clinical isolate; unit assumed
Pseudomonas aeruginosa = assay: MIC against clinical isolates; type: cell-based; settings: unit assumed
Klebsiella pneumoniae [3] = assay: MIC against clinical isolates; type: cell-based; settings: Table 5-4, clinical isolate; unit assumed
Shigella flexneri = assay: MIC against clinical isolates; type: cell-based; settings: Table 5-5, clinical isolate; unit assumed
Procedure: (§2) The minimum inhibitory concentration (MIC) was determined by the plate method disclosed in "Chemotherapy" (Japan), Vol. 16, (1968), pages 98-99. The culture medium used was a Heart infusion agar (pH 7.4). The number of the cells per plate used in the inoculum was 10^4 (10^6 cells/ml).
(§3) MIC was determined in the same manner as in the preceding paragraph (1).

Shigella sonnei = assay: MIC against clinical isolates; type: cell-based; settings: Table 5-5, clinical isolate; unit assumed
Procedure: as §2, §3

Proteus rettgeri = assay: MIC against clinical isolates; type: cell-based; settings: Table 5-6, clinical isolate; unit assumed
[4] = tested on: Pseudomonas aeruginosa I.F.O.; assay: MIC, plate method, standard strains; type: cell-based; settings: Table 3, standard strain; unit assumed
In short: as §1

Salmonella typhi-murium = assay: MIC against clinical isolates; type: cell-based; settings: Table 5-5, clinical isolate; unit assumed
Proteus mirabilis = assay: MIC against clinical isolates; type: cell-based; settings: Table 5-6, clinical isolate; unit assumed
Proteus morganii = assay: MIC against clinical isolates; type: cell-based; settings: Table 5-6, clinical isolate; unit assumed
Proteus vulgaris = assay: MIC against clinical isolates; type: cell-based; settings: Table 5-6, clinical isolate; unit assumed
[5] = tested on: β-lactamase, Pseudomonas aeruginosa GN 238; assay: Resistant activity against β-lactamase, iodometric assay; type: biochemical; settings: β-lactamase from Pseudomonas aeruginosa GN 238; Potassium Penicillin G = 100
In short: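 Crude β-lactamase was the sonicated-cell supernatant from P. aeruginosa GN 238, grown 6 h at 37 °C and washed in 0.1 M phosphate pH 7.0. Compound stability to the enzyme measured iodometrically; values are relative activity with potassium penicillin G set at 100.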

CCCCCCCCN1CCN(C(=O)N[C@@H](C(=O)N[C@@H]2C(=O)N3[C@@H]2SC(C)(C)[C@@H]3C(=O)O)c2ccccc2)C(=O)C1 [Compound 16]
MIC Esche--richin coil NIHJ (Escherichia coli NIHJ): < 1.57 µg/mL
MIC Klebsiella pneumoniae (Klebsiella pneumoniae [1]): 1.57 µg/mL (≈ 2.67 µM)
MIC Proteus vulgaris 3027 (Proteus vulgaris 3027): < 1.57 µg/mL
MIC Staphylococcus aureus 209p [2]: < 1.57 µg/mL
MIC Staphylococcus aureus F-1 (Staphylococcus aureus): 6.25 µg/mL (≈ 10.6 µM)
MIC Staphylococcus aureus F-4 (Staphylococcus aureus): 6.25 µg/mL (≈ 10.6 µM)
MIC Staphylococcus aureus MS 8588 (Staphylococcus aureus): 3.13 µg/mL (≈ 5.33 µM)
MIC Staphylococcus aureus MS 8596 (Staphylococcus aureus): 3.13 µg/mL (≈ 5.33 µM)
MIC Staphylococcus aureus MS 8684 (Staphylococcus aureus): 3.13 µg/mL (≈ 5.33 µM)
MIC Staphylococcus aureus MS 8713 (Staphylococcus aureus): 3.13 µg/mL (≈ 5.33 µM)
MIC Escherichia coli GN 3435 (Escherichia coli): 1.57 µg/mL (≈ 2.67 µM)
MIC Escherichia coli GN 3452 (Escherichia coli): 1.57 µg/mL (≈ 2.67 µM)
MIC Escherichia coli GN 3481 (Escherichia coli): 3.13 µg/mL (≈ 5.33 µM)
MIC Escherichia coli K-1 (Escherichia coli): 1.57 µg/mL (≈ 2.67 µM)
MIC Escherichia coli K-2 (Escherichia coli): 3.13 µg/mL (≈ 5.33 µM)
MIC Escherichia coli K-4 (Escherichia coli): 3.13 µg/mL (≈ 5.33 µM)
MIC Pseudomonas aeruginosa GN 82 (Pseudomonas aeruginosa; Table 5-3, clinical isolate): 6.25 µg/mL (≈ 10.6 µM)
MIC Pseudomonas aeruginosa GN 2987 (Pseudomonas aeruginosa; Table 5-3, clinical isolate): 3.13 µg/mL (≈ 5.33 µM)
MIC Klebsiella pneumoniae GN 3850 (Klebsiella pneumoniae [3]): 3.13 µg/mL (≈ 5.33 µM)
MIC Shigella flexneri JS 11215 (Shigella flexneri): 6.25 µg/mL (≈ 10.6 µM)
MIC Shigella flexneri JS 11839 (Shigella flexneri): 0.79 µg/mL (≈ 1.34 µM)
MIC Shigella sonnei JS 11232 (Shigella sonnei): 6.25 µg/mL (≈ 10.6 µM)
MIC Shigella sonnei JS 11755 (Shigella sonnei): 1.57 µg/mL (≈ 2.67 µM)
MIC Proteus rettgeri (Proteus rettgeri): 6.25 µg/mL (≈ 10.6 µM)

CCCCCCCCN1CCN(C(=O)NC(C(=O)NC2C(=O)N3C2SC(C)(C)C3C(=O)O)c2ccccc2)C(=O)C1=O (single isomer, unassigned) [Compound No. 47]
MIC Esche--richin coil NIHJ (Escherichia coli NIHJ): < 1.57 µg/mL
MIC Klebsiella pneumoniae (Klebsiella pneumoniae [1]): < 1.57 µg/mL
MIC Proteus vulgaris 3027 (Proteus vulgaris 3027): < 1.57 µg/mL
MIC Pseudomonas aeruginosa I.F.C [4]: 6.25 µg/mL (≈ 10.4 µM)
MIC Staphylococcus aureus 209p [2]: < 1.57 µg/mL
MIC Staphylococcus aureus F-1 (Staphylococcus aureus): 6.25 µg/mL (≈ 10.4 µM)
MIC Staphylococcus aureus F-2 (Staphylococcus aureus): 1.57 µg/mL (≈ 2.61 µM)
MIC Staphylococcus aureus F-3 (Staphylococcus aureus): 1.57 µg/mL (≈ 2.61 µM)
MIC Staphylococcus aureus F-5 (Staphylococcus aureus): > 200 µg/mL
MIC Staphylococcus aureus MS 8588 (Staphylococcus aureus): 3.13 µg/mL (≈ 5.2 µM)
MIC Staphylococcus aureus MS 8596 (Staphylococcus aureus): 3.13 µg/mL (≈ 5.2 µM)
MIC Staphylococcus aureus MS 8619 (Staphylococcus aureus): < 0.4 µg/mL
MIC Staphylococcus aureus MS 8684 (Staphylococcus aureus): 3.13 µg/mL (≈ 5.2 µM)
MIC Staphylococcus aureus MS 8713 (Staphylococcus aureus): 6.25 µg/mL (≈ 10.4 µM)
MIC Escherichia coli GN 3452 (Escherichia coli): 1.57 µg/mL (≈ 2.61 µM)
MIC Escherichia coli GN 3465 (Escherichia coli): 6.25 µg/mL (≈ 10.4 µM)
MIC Escherichia coli GN 3481 (Escherichia coli): 1.57 µg/mL (≈ 2.61 µM)
MIC Escherichia coli GN 3611 (Escherichia coli): > 200 µg/mL
MIC Escherichia coli K-1 (Escherichia coli): 1.57 µg/mL (≈ 2.61 µM)
MIC Escherichia coli K-2 (Escherichia coli): 1.57 µg/mL (≈ 2.61 µM)
MIC Escherichia coli K-3 (Escherichia coli): 100 µg/mL (≈ 166 µM)
MIC Pseudomonas aeruginosa GN 376 (Pseudomonas aeruginosa; Table 5-3, clinical isolate): 50 µg/mL (≈ 83.1 µM)
MIC Pseudomonas aeruginosa GN 383 (Pseudomonas aeruginosa; Table 5-3, clinical isolate): 50 µg/mL (≈ 83.1 µM)
MIC Pseudomonas neruginosa S-1 (Pseudomonas aeruginosa; Table 5-4, clinical isolate): 50 µg/mL (≈ 83.1 µM)
MIC Pseudomonas neruginosa S-2 (Pseudomonas aeruginosa; Table 5-4, clinical isolate): 50 µg/mL (≈ 83.1 µM)
MIC Pseudomonas neruginosa S-3 (Pseudomonas aeruginosa; Table 5-4, clinical isolate): 50 µg/mL (≈ 83.1 µM)
MIC Pseudomonas neruginosa S-4 (Pseudomonas aeruginosa; Table 5-4, clinical isolate): 50 µg/mL (≈ 83.1 µM)
MIC Klebsiella pneumoniae GN 917 (Klebsiella pneumoniae [3]): 1.57 µg/mL (≈ 2.61 µM)
MIC Klebsiella pneumoniae GN 3850 (Klebsiella pneumoniae [3]): 3.13 µg/mL (≈ 5.2 µM)
MIC Shigella flexneri JS 11215 (Shigella flexneri): 6.25 µg/mL (≈ 10.4 µM)
MIC Shigella flexneri JS 11839 (Shigella flexneri): 1.57 µg/mL (≈ 2.61 µM)
MIC Shigella sonnei JS 11232 (Shigella sonnei): 6.25 µg/mL (≈ 10.4 µM)
MIC Shigella sonnei JS 11755 (Shigella sonnei): 0.79 µg/mL (≈ 1.31 µM)
MIC Salmonella typhi-murium SL 858 (Salmonella typhi-murium): < 0.4 µg/mL
MIC Salmonella typhi-murium SL 2136 (Salmonella typhi-murium): 50 µg/mL (≈ 83.1 µM)
MIC Proteus mirabilis (Proteus mirabilis): < 0.4 µg/mL
MIC Proteus morganii (Proteus morganii): < 0.4 µg/mL
MIC Proteus vulgaris (Proteus vulgaris): < 0.4 µg/mL
Relative activity (%), resistant activity against β-lactamase [5]: 1%
